Laboratory results published in ChEMBL document CHEMBL4814066, “Amphiphilic peptide-based MMP3 inhibitors for intra-articular treatment of knee OA” (Bioorg Med Chem, 2021).
The source made the active and inactive calls. The rule behind the calls is not given here. Residues, ends and D or L forms follow the SMILES beside them.

Legend:
Stromelysin-1 = Stromelysin-1 (Homo sapiens, UniProt P08254); assay: Inhibition of human MMP3 catalytic subunit by fluorometric analysis
[1] = Solubility in water at 1 mg/ml; format: physicochemical; details: buffer
Cartilage tissue [2] = assay: Antiinflammatory activity against bovine normal hyaline femoral condyles cartilage assessed as reduction in IL-1beta/OSM-induced collagen release at 6 to 127 uM incubated for 21 days with media replenishment for every 7 days relative to control; format: functional, tissue-based; details: Bos taurus, dose 6-127 µM, time 21.0 day
[3] = Cytotoxicity against mouse BALB/3T3 cells clone A31 incubated for 24 hrs by Alamar blue assay; format: cell-based; details: BALB/3T3 clone A31, 24 h
Cartilage tissue [4] = assay: Antiinflammatory activity against bovine normal hyaline femoral condyles cartilage assessed as reduction in IL-1beta/OSM-induced collagen release at 93 uM incubated for 21 days with media replenishment for every 7 days relative to control; format: functional, tissue-based; details: Bos taurus, time 21.0 day

Chain of Stromelysin-1 (P08254 whole entry): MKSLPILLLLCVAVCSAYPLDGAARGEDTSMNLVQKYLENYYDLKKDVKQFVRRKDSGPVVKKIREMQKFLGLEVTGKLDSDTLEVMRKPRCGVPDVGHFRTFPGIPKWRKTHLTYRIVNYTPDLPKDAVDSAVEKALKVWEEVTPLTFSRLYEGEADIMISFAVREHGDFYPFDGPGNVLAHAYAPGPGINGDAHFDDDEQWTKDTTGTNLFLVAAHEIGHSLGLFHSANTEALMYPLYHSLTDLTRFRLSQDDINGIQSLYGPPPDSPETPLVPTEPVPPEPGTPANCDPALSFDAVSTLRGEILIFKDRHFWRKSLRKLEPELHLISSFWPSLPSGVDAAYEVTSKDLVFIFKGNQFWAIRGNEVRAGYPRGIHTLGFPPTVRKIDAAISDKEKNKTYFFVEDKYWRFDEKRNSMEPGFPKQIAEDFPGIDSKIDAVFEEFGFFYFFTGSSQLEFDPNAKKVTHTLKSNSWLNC

IC50 (Stromelysin-1)	solubility [1]	SMILES	Activity (Cartilage tissue [2])	IC50 [3]	Activity (Cartilage tissue [4])
> 50 µM	Insoluble	CCCCCCCCC/C=C/CCCCCCCC(=O)N[C@@H](CS)C(=O)NCC(=O)N[C@@H](CCCNC(=N)N)C(=O)O			
95.3 µM	Soluble	CC(=O)N[C@@H](CCCNC(=N)N)C(=O)N[C@@H](CS)C(=O)NCC(N)=O (Ac-Arg-Cys-Gly-NH2)			
> 50 µM	Soluble	CC(=O)N[C@@H](CS)C(=O)NCC(=O)N[C@@H](CCCNC(=N)N)C(=O)N[C@@H](CCCCN)C(=O)O (Ac-CGRK-OH)			
850 µM	Insoluble	CC(=O)N[C@@H](CS)C(=O)NCC(=O)N[C@@H](CCCNC(=N)N)C(=O)O (Ac-Cys-Gly-Arg-OH)			
10.2 µM	Soluble	CC(=O)N[C@@H](CCCNC(=N)N)C(=O)N[C@@H](CS)C(=O)NCC(=O)N[C@H](C(N)=O)C(C)C (Ac-RCGV-NH2)	Active	253 µM	
173 µM	Soluble	CC(C)[C@H](NC(=O)CNC(=O)[C@H](CS)NC(=O)[C@@H](N)CCCNC(=N)N)C(N)=O (H-RCGV-NH2)			
> 200 µM	Insoluble	CCCCCCCCNC(=O)C[C@H](NC(=O)CNC(=O)[C@H](CS)NC(=O)[C@@H](N)CCCNC(=N)N)C(N)=O (HELM PEPTIDE1{R.C.G.D.[am]}|CHEM1{[CCCCCCCCN[*:1]]}$PEPTIDE1,CHEM1,4:R3-1:R1$$$V2.0)			
4.4 µM	Insoluble	CCCCCCCC(=O)N[C@@H](CS)C(=O)NCC(=O)N[C@@H](CCCNC(=N)N)C(=O)O (HELM PEPTIDE1{[CCCCCCCC(=O)[*:2]].C.G.R}$$$$V2.0)			
3.2 µM	Soluble	CCCCCCCCCCCC(=O)N[C@@H](CS)C(=O)NCC(=O)N[C@@H](CCCNC(=N)N)C(=O)N[C@@H](CCCCN)C(=O)O (HELM PEPTIDE1{[CCCCCCCCCCCC(=O)[*:2]].C.G.R.K}$$$$V2.0)		186 µM	Active
7 µM	Insoluble	CCCCCCCCCCCC(=O)N[C@@H](CS)C(=O)NCC(=O)N[C@@H](CCCNC(=N)N)C(=O)O (HELM PEPTIDE1{[CCCCCCCCCCCC(=O)[*:2]].C.G.R}$$$$V2.0)			
61.4 µM	Soluble	CCCCCCCCNC(=O)C[C@H](NC(=O)CNC(=O)[C@H](CS)NC(=O)[C@H](CCCNC(=N)N)NC(C)=O)C(N)=O (HELM PEPTIDE1{[ac].R.C.G.D.[am]}|CHEM1{[CCCCCCCCN[*:1]]}$PEPTIDE1,CHEM1,5:R3-1:R1$$$V2.0)			
79.5 µM	Soluble	CCCC[C@H](NC(=O)CNC(=O)[C@H](CS)NC(=O)[C@H](CCCNC(=N)N)NC(C)=O)C(N)=O (HELM PEPTIDE1{[ac].R.C.G.[Nle].[am]}$$$$V2.0)			
